Test results taken from patent US6908935B2, “Calcium receptor modulating agents” (Amgen Inc., priority 2002, dated 2005).
pEC50: −log10 of the molar value.

molecular target: T1, human parathyroid cell Ca^2+ receptor (hPCaR) (Homo sapiens, UniProt P41180); assay: [Ca2+]i measurement with fluo-3 in HEK 293 4.0-7 cells stably transfected with hPCaR; assay type: cell-based; conditions: fluo-3 fluorescence (485/530 nm), effect on [Ca^2+]i
T1 construct: expressed in transfected cells
T1 sequence (P41180 20-1078): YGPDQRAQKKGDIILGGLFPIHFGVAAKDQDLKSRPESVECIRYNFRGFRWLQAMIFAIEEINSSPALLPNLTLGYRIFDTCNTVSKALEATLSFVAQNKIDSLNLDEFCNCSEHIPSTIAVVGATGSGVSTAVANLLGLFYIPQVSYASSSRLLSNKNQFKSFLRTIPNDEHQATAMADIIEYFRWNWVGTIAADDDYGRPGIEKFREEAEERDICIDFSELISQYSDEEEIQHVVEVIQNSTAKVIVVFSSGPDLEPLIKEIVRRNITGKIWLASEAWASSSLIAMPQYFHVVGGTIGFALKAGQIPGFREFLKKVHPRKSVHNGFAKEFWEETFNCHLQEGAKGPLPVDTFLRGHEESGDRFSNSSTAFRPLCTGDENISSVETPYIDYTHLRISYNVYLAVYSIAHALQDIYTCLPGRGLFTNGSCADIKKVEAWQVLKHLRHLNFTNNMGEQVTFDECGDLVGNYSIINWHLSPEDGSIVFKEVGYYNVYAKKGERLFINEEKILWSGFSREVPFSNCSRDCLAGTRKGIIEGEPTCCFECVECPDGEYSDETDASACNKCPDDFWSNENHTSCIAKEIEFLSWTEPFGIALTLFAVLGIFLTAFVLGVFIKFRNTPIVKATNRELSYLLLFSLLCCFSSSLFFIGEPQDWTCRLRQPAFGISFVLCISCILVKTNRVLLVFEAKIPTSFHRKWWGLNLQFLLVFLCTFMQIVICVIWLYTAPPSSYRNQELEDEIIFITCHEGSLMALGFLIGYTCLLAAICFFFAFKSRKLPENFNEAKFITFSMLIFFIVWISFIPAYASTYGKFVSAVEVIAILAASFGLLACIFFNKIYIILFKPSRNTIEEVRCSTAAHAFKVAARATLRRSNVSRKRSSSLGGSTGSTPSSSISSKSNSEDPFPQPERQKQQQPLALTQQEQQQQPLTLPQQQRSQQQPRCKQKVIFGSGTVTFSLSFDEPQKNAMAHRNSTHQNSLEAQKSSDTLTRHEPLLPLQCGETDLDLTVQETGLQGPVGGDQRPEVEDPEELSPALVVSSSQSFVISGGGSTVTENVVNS
Method in brief: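 HEK 293 cells stably expressing human parathyroid Ca2+ receptor (clone 4.0-7), loaded with 2 μM fluo-3 AM for 30 min at 37 °C in parathyroid cell buffer (pH 7.45) with 1 mM CaCl2 and 0.5% BSA. After compound addition, intracellular Ca2+ followed by fluorescence at 485 nm excitation/530 nm emission.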

| pEC50 | Structure (SMILES) |
| --- | --- |
| ≥ 5.00 | COc1cccc([C@@H](C)NCc2ccc(OC)c(-c3ccoc3)c2)c1 [(1R)-N-((3-(3-furanyl)-4-(methyloxy)phenyl)methyl)-1-(3-(methyloxy)phenyl)ethanamine] |
| ≥ 5.00 | COc1cccc([C@@H](C)NCc2cccc(-c3ccc(NC(C)=O)nc3)c2)c1 [N-(5-(3-((((1R)-1-(3-(methyloxy)phenyl)ethyl)amino)methyl)phenyl)-2-pyridinyl)acetamide] |
| ≥ 5.00 | CCOc1ccc(CN[C@H](C)c2ccccc2)cc1-c1ccc(OC)cc1 [(1R)-N-((6-(ethyloxy)-4′-(methyloxy)-1,1′-biphenyl-3-yl)methyl)-1-phenylethanamine] |
| ≥ 5.00 | COc1ccc([C@@H](C)NCc2ccc(OC)c(-c3ccsc3)c2)cc1 [(1R)-1-(4-(methyloxy)phenyl)-N-((4-(methyloxy)-3-(3-thienyl)phenyl)methyl)ethanamine] |
| ≥ 5.00 | COc1cccc([C@@H](C)NCc2ccc(OC)c(-c3ccc(C(F)(F)F)cc3)c2)c1 [(1R)-1-(3-(methyloxy)phenyl)-N-((6-(methyloxy)-4′-(trifluoromethyl)-1,1′-biphenyl-3-yl)methyl)ethanamine] |
| ≥ 5.00 | COc1ccc(CN[C@H](C)c2ccccc2)cc1-c1ccc(OCC(F)(F)F)nc1 [(1R)-N-((4-(methyloxy)-3-(6-((2,2,2-trifluoroethyl)oxy)-3-pyridinyl)phenyl)methyl)-1-phenylethanamine] |
| ≥ 5.00 | COc1ccc(CN[C@H](C)c2cccc3ccccc23)cc1-c1ccccn1 [(1R)-N-((4-(methyloxy)-3-(2-pyridinyl)phenyl)methyl)-1-(1-naphthalenyl)ethanamine] |
| ≥ 5.00 | COc1ccc(CN[C@H](C)c2cccc3ccccc23)cc1-c1nc2ccccc2n1C [(1R)-N-((3-(1-methyl-1H-benzimidazol-2-yl)-4-(methyloxy)phenyl)methyl)-1-(1-naphthalenyl)ethanamine] |
| ≥ 5.00 | COc1cccc([C@@H](C)NCc2cccc(-c3ccc(OC)nn3)c2)c1 [(1R)-1-(3-(methyloxy)phenyl)-N-((3-(6-(methyloxy)-3-pyridazinyl)phenyl)methyl)ethanamine] |
| ≥ 5.00 | C[C@@H](NCc1ccc(F)c(-c2ccc(F)cc2)c1)c1ccccc1 [Example 251, (1R)-N-((4′,6-difluoro-1,1′-biphenyl-3-yl)methyl)-1-phenylethanamine] |
| ≥ 5.00 | COc1ccc(CN[C@H](C)c2ccccc2)cc1-c1csc(N2CCCCC2)n1 [(1R)-N-((4-(methyloxy)-3-(2-(1-piperidinyl)-1,3-thiazol-4-yl)phenyl)methyl)-1-phenylethanamine] |
| ≥ 5.00 | COc1ccc([C@@H](C)NCc2cccc(-c3ccccn3)c2)cc1 [(1R)-1-(4-(methyloxy)phenyl)-N-((3-(2-pyridinyl)phenyl)methyl)ethanamine] |
| ≥ 5.00 | COc1ccc(CN[C@H](C)c2cccc3ccccc23)cc1-c1nccs1 [(1R)-N-((4-(methyloxy)-3-(1,3-thiazol-2-yl)phenyl)methyl)-1-(1-naphthalenyl)ethanamine] |
| ≥ 5.00 | COc1ccc(CN[C@H](C)c2ccccc2)cc1-c1nnc(C(F)(F)F)o1 [(1R)-N-((4-(methyloxy)-3-(5-(trifluoromethyl)-1,3,4-oxadiazol-2-yl)phenyl)methyl)-1-phenylethanamine] |
| ≥ 5.00 | C[C@@H](NCc1cccc(-c2ccc(F)cc2)c1)c1ccccc1 [(1R)-N-((4′-fluoro-1,1′-biphenyl-3-yl)methyl)-1-phenylethanamine] |
| ≥ 5.00 | COc1ccc(CN[C@H](C)c2ccccc2)cc1-c1ccc2c(ccn2CC(F)(F)F)c1 [(1R)-N-((4-(methyloxy)-3-(1-(2,2,2-trifluoroethyl)-1H-indol-5-yl)phenyl)methyl)-1-phenylethanamine] |

| Structure (SMILES) | pEC50 |
| --- | --- |
| COc1ccc(CN[C@H](C)c2ccc(C)cc2)cc1-c1cccc(C#N)c1 [2′-(methyloxy)-5′-((((1R)-1-(4-methylphenyl)ethyl)amino)methyl)-1,1′-biphenyl-3-carbonitrile] | ≥ 5.00 |
